{
  "source": "patent US11571418B2",
  "about": "“Platinum compounds that inhibit constitutive STAT3 signaling and induce cell cycle arrest and apoptosis of malignant cells” (H. LEE MOFFITT CANCER CENTER AND RESEARCH INSTITUTE, INC., priority 2011, dated 2023)",
  "key": {"NIH3T3/v-Ras fibroblasts": {"tested_on": "NIH3T3/v-Ras fibroblasts", "test": "Soft-agar colony formation assay", "type": "cell-based, mouse", "details": "treated every 2-3 days until large colonies evident", "description": "(§1) FIG. 4. Abrogation of Stat3-dependent viral Src transformation. Viral Src-transformed fibroblasts (NIH3T3/v-Src) and their Ras-transformed counterparts (NIH3T3/v-Ras) were seeded in soft agar and growing cells were treated every 2-3 days with or without the indicated concentrations of PLATINUM-401 until large colonies were evident. Number of colonies of cells in soft agar were counted and expressed as % of control (non-treated) cells. Values are the mean and S.D. of the three independent assays.\n(§2) Soft-agar colony formation assays—Colony formation assays were carried out in six-well dishes as previously described (Turkson et al., 1999). In brief, each well contained 1.5 ml of 1% agarose in DMEM as the bottom layer, and 1.5 ml of 0.5% agarose in DMEM containing 4000 or 6000 NIH3T3/v-Src or NIH3T3/v-Ras fibroblasts, respectively, as the top layer. Treatment with PLATINUM-401 was initiated 1 day after seeding cells by adding 75-100 μl of medium with or without compound, and repeated every three days, until large colonies were evident. Colonies were quantified by staining with 20 μl of 1 mg/ml iodonitrotetrazolium violet, incubating at 37° C. overnight and counting the next day.\n(§3) PLATINUM-401 was next evaluated for effects on Stat3-mediated v-Src transformation (Turkson et al., 1998; Bromberg et al., 1998; Turkson et al., 1999)."}, "NIH3T3/v-Src fibroblasts": {"tested_on": "NIH3T3/v-Src fibroblasts", "test": "Soft-agar colony formation assay", "type": "cell-based, mouse", "details": "treated every 2-3 days until large colonies evident", "description": "as §1, §2, §3"}, "E2F1": {"biological_target": "T1, E2F1 (Homo sapiens, UniProt Q01094)", "T1 construct": "made in house; host or cells: Sf-9 insect cells infected with baculovirus", "T1 sequence (Q01094 whole entry, species assumed)": "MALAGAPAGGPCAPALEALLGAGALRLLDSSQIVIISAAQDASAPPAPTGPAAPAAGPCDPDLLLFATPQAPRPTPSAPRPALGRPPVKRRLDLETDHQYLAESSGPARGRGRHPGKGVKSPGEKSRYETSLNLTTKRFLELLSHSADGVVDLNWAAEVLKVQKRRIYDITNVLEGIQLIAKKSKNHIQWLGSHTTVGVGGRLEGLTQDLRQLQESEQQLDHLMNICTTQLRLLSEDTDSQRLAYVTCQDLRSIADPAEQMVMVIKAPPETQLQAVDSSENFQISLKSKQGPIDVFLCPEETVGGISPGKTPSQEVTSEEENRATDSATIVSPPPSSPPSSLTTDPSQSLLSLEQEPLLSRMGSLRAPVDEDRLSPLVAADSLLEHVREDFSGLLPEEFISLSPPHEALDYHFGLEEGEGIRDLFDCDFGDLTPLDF", "test": "Non-STAT protein added to activated Stat3 before EMSA (titration of compound)", "type": "binding"}, "[1]": {"tested_on": "hSIE oligonucleotide probe", "test": "Pre-treatment of hSIE oligonucleotide with compound, then Stat3 binding by EMSA", "details": "oligonucleotide treated 30 min, then radiolabeled", "description": "To investigate the possibility that PLATINUM-401 might alter the integrity of the hSIE oligonucleotide probe that is used in the DNA-binding activity studies and thereby inhibit Stat3 binding, the oligonucleotide was first treated with PLATINUM-401 for 30 min. Pre-treated oligonucleotide was then radiolabeled and tested for its ability to bind to activated Stat3 in vitro. […] While PLATINUM-401 was in direct contact with the oligonucleotide probe during the pre-treatment stage and prior to radiolabeling of the probe, it is unlikely to have been retained with the oligonucleotide probe following purification of the probe and therefore would not have come into contact with Stat3 protein at the time of the in vitro DNA-binding assay."}, "[2]": {"tested_on": "constitutively-active Stat3 in NIH3T3/v-Src", "test": "Constitutive Stat3 DNA-binding activity in treated NIH3T3/v-Src cells (EMSA of nuclear extracts)", "type": "cell-based, mouse", "description": "FIGS. 3A-3D. Inhibition of Stat3-mediated gene expression by PLATINUM-401. (FIG. 3A) and (FIG. 3B) v-Src-transformed mouse fibroblasts that stably express Stat3-dependent (NIH3T3/v-Src/pLucTKS3) and Stat3-independent (NIH3T3/v-Src/pRLSRE) luciferase reporters or β-galactosidase (β-gal), as well as normal mouse fibroblast (NIH3T3) transiently transfected with pLucTKS3, pGL2-VEGF-Luc, NFkB-Luc or pLucSRE together with or without v-Src were treated with or without PLATINUM-401 for 48 h. Cytosolic extracts were then prepared from cells for luciferase and […] activities measurements. Values are the means and S.D. of three to five independent assays; (FIG. 3C) and (FIG. 3D) Nuclear extracts or whole cell lysates were prepared from IL-6-stimulated normal mouse fibroblasts (NIH3T3) or their v-Src-transformed counterpart (NIH3T3/v-Src) that are treated with or without PLATINUM-401 for different times. Samples of equal total proteins were then subjected to in vitro DNA-binding activity and EMSA analysis or for SDS-PAGE and Western blot analysis for phosphorylated and total Stat3.\nNuclear extract preparation and gel shift assays—Nuclear extract preparation from NIH3T3 stimulated by rhIL-6, NIH3T3/hEGFR stimulated by rhEGF, v-Src-transformed fibroblasts (NIH3T3/v-Src) or tumor cell lines and electrophoretic mobility shift assay were carried out as previously described (Turkson et al., 1998; Garcia et al., 1997; Yu et al., 1995). The ^32P-labeled oligonucleotide probes used are hSIE (high affinity sis-inducible element from the c-fos gene, m67 variant, 5′-[…]) (SEQ ID NO:1) that binds Stat1 and Stat3 (Garcia et al., 1997; Wagner et al., 1990) and MGFe (mammary gland factor element from the bovine β-casein gene promoter, 5′-AGATTTCTAGGAATTCAA) (SEQ ID NO:2) for Stat1 and Stat5 binding (49,50). Except where indicated, inhibitor compound was pre-incubated with the nuclear extract for 30 min at room temperature prior to incubation with radiolabeled probe.\nTo further investigate the activities of PLATINUM-401, the inventors treated malignant cells and measured effects on Stat3 signaling. […] Taken together with the results in FIG. 1, these findings indicate that PLATINUM-401 blocks the binding of activated Stat3 to its responsive elements in the promoters of target genes. Moreover, in a time- and dose-dependent manner, PLATINUM-401 inhibits the constitutive or ligand-induced activation of Stat3 DNA-binding activity (FIG. 3C), as well as tyrosine phosphorylation in mouse fibroblasts (FIG. 3D and data not shown). […] Changes in Stat3 protein levels were minimal. […] Results together indicate that at the 5-10 μM PLATINUM-401 that inhibits intracellular Stat3 signaling, there is no observable non-specific effect on non-Stat3 related pathways investigated here.\nTo further elucidate the interaction between Stat3 and PLATINUM-401, v-Src-transformed mouse fibroblasts were transfected with Stat3 protein and then used to investigate PLATINUM-401 activity. The transfection of wild-type Stat3 into the v-Src-transformed fibroblasts results in higher Stat3 DNA-binding activity over that of parentals, as measured by in vitro DNA-binding activity and EMSA analysis (FIG. 7C, left panel, lanes 3 and 6 versus 1 and 2). This is due to the increased expression of Stat3 protein and the consequent phosphorylation by oncogenic Src tyrosine kinase that is present in these cells."}, "inactive Stat1 monomer": {"biological_target": "T2, inactive Stat1 monomer (Homo sapiens, UniProt P42224)", "T2 construct": "made in house; host or cells: Sf-9 insect cells infected with baculovirus", "T2 sequence (P42224 whole entry)": "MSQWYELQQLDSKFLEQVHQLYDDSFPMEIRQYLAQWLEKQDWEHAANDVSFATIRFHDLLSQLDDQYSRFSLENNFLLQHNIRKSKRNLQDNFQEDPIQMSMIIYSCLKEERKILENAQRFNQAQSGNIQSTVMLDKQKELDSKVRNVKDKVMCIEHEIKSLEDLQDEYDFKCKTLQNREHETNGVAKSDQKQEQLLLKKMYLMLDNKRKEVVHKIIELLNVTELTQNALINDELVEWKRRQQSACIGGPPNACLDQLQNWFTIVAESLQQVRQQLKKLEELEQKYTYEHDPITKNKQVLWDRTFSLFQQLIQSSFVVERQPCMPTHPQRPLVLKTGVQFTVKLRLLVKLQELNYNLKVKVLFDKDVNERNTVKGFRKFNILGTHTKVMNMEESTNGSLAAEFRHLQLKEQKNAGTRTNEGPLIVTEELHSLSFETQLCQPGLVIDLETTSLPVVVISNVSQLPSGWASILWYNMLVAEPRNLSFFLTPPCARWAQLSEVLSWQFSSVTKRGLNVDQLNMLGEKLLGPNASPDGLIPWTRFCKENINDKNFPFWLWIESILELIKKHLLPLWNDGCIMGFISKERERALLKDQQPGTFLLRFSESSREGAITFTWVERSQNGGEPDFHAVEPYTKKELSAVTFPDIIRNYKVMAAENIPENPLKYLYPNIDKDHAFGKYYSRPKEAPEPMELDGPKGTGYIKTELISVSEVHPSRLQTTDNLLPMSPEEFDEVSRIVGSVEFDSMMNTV", "test": "Inactive STAT monomer added to activated Stat3 before EMSA (titration of compound)", "type": "binding", "details": "monomer added to activated Stat3, pre-incubated with compound 30 min"}},
  "data": [
    {"smiles": "CC(O)CN1CCN(CC(C)O)CC1", "note": "(stereo not shown) [PLATINUM-401]", "values": [
      {"measurement": "growth in soft agar", "setting": "NIH3T3/v-Ras fibroblasts", "result": "only partially inhibits growth"},
      {"measurement": "growth in soft agar", "setting": "NIH3T3/v-Src fibroblasts", "result": "strongly suppresses growth"},
      {"measurement": "influence of E2F1 protein on compound's effect on Stat3 DNA-binding activity", "setting": "E2F1", "result": "failed to significantly influence"},
      {"measurement": "effect of pre-treatment of hSIE oligonucleotide on its ability to bind activated Stat3", "setting": "[1]", "result": "no observable effect"},
      {"measurement": "constitutively-active Stat3 DNA-binding activity, cells transfected with wild-type Stat3", "setting": "[2]; NIH3T3/v-Src transfected with exogenous wild-type Stat3, 5 μM, 36 h", "result": "no significant reduction"},
      {"measurement": "time required for significant inhibition of constitutively-active Stat3", "setting": "[2]; NIH3T3/v-Src, data not shown", "result": "> 12", "unit": "h"},
      {"measurement": "concentration that inhibits intracellular Stat3 signaling", "setting": "[2]; mouse fibroblasts", "result": "5 to 10", "unit": "µM"},
      {"measurement": "constitutively-active Stat3 DNA-binding activity, mock-transfected cells", "setting": "[2]; parental, mock-transfected NIH3T3/v-Src, 5 μM, 36 h", "result": "significant reduction"},
      {"measurement": "constitutive activation of Stat3 DNA-binding activity", "setting": "[2]; time- and dose-dependent", "result": "inhibits"},
      {"measurement": "interaction with inactive Stat1 monomer", "setting": "inactive Stat1 monomer", "result": "also interacts"}
    ]}
  ]
}
